These results are taken from patent publication EP0238178B1, “Novel derivatives of erythromycylamine” (ELI LILLY AND COMPANY, priority 1986, dated 1987).

In experiment [1] the test system is Staphylococcus aureus X1.1. Description: MIC, standard agar-dilution assay. It is filed as cell-based. The conditions noted are these: read-out: MIC.
For experiment [2], the system named is Staphylococcus aureus V41. The experiment in a line: MIC, standard agar-dilution assay. It is filed as cell-based. The conditions noted are these: Staphylococcus aureus V41, Penicillin-resistant strain, inducibly-resistant to erythromycin; read-out: MIC. The source says: (§1) In addition to excellent in vitro activity against erythromycin-sensitive bacteria, several members of this new series have shown in vitro activity against erythromycin-resistant strains. These include strains which are inducibly-resistant to erythromycin (S.. aureus V41 and X400 and S. epidermidis EPI1) and even strains which are constitutively-resistant (S. epidermidis 270).

Experiment [3] concerns Staphylococcus aureus X400. The experiment in a line: MIC, standard agar-dilution assay. The following applies: Staphylococcus aureus X400, Methicillin-resistant strain, inducibly-resistant to erythromycin; read-out: MIC. It is filed as cell-based.
Source text: as §1

For experiment [4], the system named is Staphylococcus epidermidis 270. Description: MIC, standard agar-dilution assay. The following applies: Staphylococcus epidermidis 270, constitutively-resistant to erythromycin. Format: cell-based.
Source text: as §1

Experiment [5] deals with Staphylococcus aureus S13E. Description: MIC, standard agar-dilution assay. It is filed as cell-based.
In experiment [6] the test system is Staphylococcus epidermidis 222. The experiment in a line: MIC, standard agar-dilution assay. It is filed as cell-based. The conditions noted are these: read-out: MIC.
In experiment [7] the test system is Streptococcus pyogenes C203. The experiment in a line: MIC, standard agar-dilution assay. It is filed as cell-based. The following applies: read-out: MIC.
Experiment [8] relates to Streptococcus pneumoniae Park I. Description: MIC, standard agar-dilution assay. Format: cell-based. The following applies: read-out: MIC.
Experiment [9] has as its system Streptococcus sp. group D X66. Description: MIC, standard agar-dilution assay. Format: cell-based. The conditions noted are these: Streptococcus sp. group D X66; read-out: MIC.
The test system of experiment [10] is Streptococcus sp. group D 2041. Description: MIC, standard agar-dilution assay. Format: cell-based. The conditions noted are these: read-out: MIC.
In experiment [11] the test system is Haemophilus influenzae C.L. The experiment in a line: MIC, standard agar-dilution assay. It is filed as cell-based. The conditions noted are these: Ampicillin-sensitive strain, read-out: MIC.
The next experiment concerns Escherichia coli EC14. The experiment in a line: MIC, standard agar-dilution assay. Format: cell-based. The following applies: read-out: MIC.
A further experiment has as its system Staphylococcus aureus. The experiment in a line: Experimental bacterial infection in mice, ED50. It is filed as in vivo. The conditions noted are these: Staphylococcus aureus, po, two doses, dose protecting 50% of animals, read-out: Oral ED50. The protocol: (§2) The new derivatives of this invention have also shown in vivo antimicrobial activity against experimental bacterial infections. When two doses of test compound were administered to mice in experimental infections, the activity observed was measured as an EDso value [effective dose in mg/kg to protect 50% of the test animals: see Warren Wick, et al., J. Bacteriol. 81, 233-235 (1961)].

The next experiment has as its system Streptococcus pneumoniae. Description: Experimental bacterial infection in mice, ED50. Format: in vivo. The following applies: Streptococcus pneumoniae, po, two doses, dose protecting 50% of animals, read-out: Oral ED50. The protocol:
as §2

Another experiment deals with Streptococcus pyogenes. The experiment in a line: Experimental bacterial infection in mice, ED50. Format: in vivo. The conditions noted are these: Streptococcus pyogenes, po, two doses, dose protecting 50% of animals, read-out: Oral ED50. The protocol: as §2
The subject of experiment [12] is Staphylococcus epidermidis EPI1. The experiment in a line: MIC, standard agar-dilution assay. Format: cell-based.
Source text: as §1

In experiment [13] the test system is Haemophilus influenzae 76. The experiment in a line: MIC, standard agar-dilution assay. Format: cell-based. The following applies: Haemophilus influenzae 76, Ampicillin-resistant strain; read-out: MIC.
The test system of experiment [14] is Klebsiella pneumoniae X68. Description: MIC, standard agar-dilution assay. Format: cell-based. The conditions noted are these: read-out: MIC.

Converted amounts (≈) assume the structure as drawn.

On to `CCCCC/C=C\CCCN[C@@H]1[C@H](C)[C@@H](O)[C@](C)(O)[C@@H](CC)OC(=O)[C@H](C)[C@@H](O[C@H]2C[C@@](C)(OC)[C@@H](O)[C@H](C)O2)[C@H](C)[C@@H](O[C@@H]2O[C@H](C)C[C@H](N(C)C)[C@H]2O)[C@](C)(O)C[C@H]1C` [Compound 13], for which the MIC in experiment [1] was found to be 0.25 µg/mL (≈ 0.286 µM); in experiment [2], 8 µg/mL (≈ 9.16 µM); in experiment [3] it was 8 µg/mL (≈ 9.16 µM); in [4], 32 µg/mL (≈ 36.6 µM); in [5], 0.25 µg/mL (≈ 0.286 µM); in [6], 0.125 µg/mL (≈ 0.143 µM). Besides, the MIC in experiment [7] was less than 0.008 µg/mL; in experiment [8], less than 0.008 µg/mL; in experiment [9], 0.06 µg/mL (≈ 0.0687 µM); in experiment [10] it was 1 µg/mL (≈ 1.15 µM); in experiment [11] it was 2 µg/mL (≈ 2.29 µM); in the experiment with Escherichia coli EC14 it was 128 µg/mL (≈ 147 µM).
Regarding `CCCCC/C=C/CCCN[C@@H]1[C@H](C)[C@@H](O)[C@](C)(O)[C@@H](CC)OC(=O)[C@H](C)[C@@H](O[C@H]2C[C@@](C)(OC)[C@@H](O)[C@H](C)O2)[C@H](C)[C@@H](O[C@@H]2O[C@H](C)C[C@H](N(C)C)[C@H]2O)[C@](C)(O)C[C@H]1C` [Compound 14, 9-Deoxo-9-[(trans-dec-4-enyl)amino]erythromycin], the MIC came to 0.5 µg/mL (≈ 0.573 µM) in experiment [1]; 8 µg/mL (≈ 9.16 µM) in [2]; 16 µg/mL (≈ 18.3 µM) in experiment [3]; 32 µg/mL (≈ 36.6 µM) in experiment [4]; 0.25 µg/mL (≈ 0.286 µM) in experiment [5]; 0.25 µg/mL (≈ 0.286 µM) in experiment [6]. The MIC in [7] is less than 0.008 µg/mL; in experiment [8] it was less than 0.008 µg/mL; in [9] it was 0.125 µg/mL (≈ 0.143 µM); in experiment [10], 2 µg/mL (≈ 2.29 µM); in experiment [11] it was 2 µg/mL (≈ 2.29 µM); in the experiment on Escherichia coli EC14, 128 µg/mL (≈ 147 µM).
Broadly, the ED50 is the midpoint of the dose-response relation. Consider `CC[C@H]1OC(=O)[C@H](C)[C@@H](O[C@H]2C[C@@](C)(OC)[C@@H](O)[C@H](C)O2)[C@H](C)[C@@H](O[C@@H]2O[C@H](C)C[C@H](N(C)C)[C@H]2O)[C@](C)(O)C[C@@H](C)[C@H](NCC#Cc2ccccc2)[C@H](C)[C@@H](O)[C@]1(C)O` [Compound 18], for which the MIC in [1] amounted to 1 µg/mL (≈ 1.18 µM); in [2], 16 µg/mL (≈ 18.8 µM); in [3], 32 µg/mL (≈ 37.7 µM); in experiment [4], 64 µg/mL (≈ 75.4 µM); in experiment [5] it was 0.5 µg/mL (≈ 0.589 µM); in [6] it was 0.5 µg/mL (≈ 0.589 µM). Further, the MIC in experiment [7] was less than 0.008 µg/mL; in [8], less than 0.008 µg/mL; in experiment [9] it was 0.25 µg/mL (≈ 0.294 µM); in [10], 1 µg/mL (≈ 1.18 µM); in experiment [11], 4 µg/mL (≈ 4.71 µM). The figures for the 50% effective dose (ED50) in the experiment with Staphylococcus aureus, in the experiment with Streptococcus pneumoniae and in the experiment on Streptococcus pyogenes were more than 50 mg/kg, 33.9 mg/kg and 26.7 mg/kg, respectively.
`CC[C@H]1OC(=O)[C@H](C)[C@@H](O[C@H]2C[C@@](C)(OC)[C@@H](O)[C@H](C)O2)[C@H](C)[C@@H](O[C@@H]2O[C@H](C)C[C@H](N(C)C)[C@H]2O)[C@](C)(O)C[C@@H](C)[C@H]2[C@H](C)[C@@H](OCN2Cc2ccccc2)[C@]1(C)O` [Compound 62, 9-Deoxo-9-[(benzyl)amino]-9,11-(N.O)-cyclic Methylene Adduct of Erythromycin]: the MIC in experiment [1] came to 1 µg/mL (≈ 1.19 µM); in experiment [2], 64 µg/mL (≈ 76.5 µM); in experiment [3] it was 128 µg/mL (≈ 153 µM); in [12] it was 64 µg/mL (≈ 76.5 µM); in [5], 1 µg/mL (≈ 1.19 µM); in [6] it was 0.5 µg/mL (≈ 0.597 µM). The MIC was 0.125 µg/mL (≈ 0.149 µM) in experiment [7]; 0.06 µg/mL (≈ 0.0717 µM) in [8]; 0.5 µg/mL (≈ 0.597 µM) in experiment [9]; 4 µg/mL (≈ 4.78 µM) in [10]; 4 µg/mL (≈ 4.78 µM) in experiment [11]; 4 µg/mL (≈ 4.78 µM) in experiment [13]. Further, the MIC (with Escherichia coli EC14; in experiment [14]) was more than 128 µg/mL throughout. Also, the ED50 in the experiment on Staphylococcus aureus was more than 50 mg/kg; in the experiment with Streptococcus pneumoniae it was 15.2 mg/kg; in the experiment with Streptococcus pyogenes, 15.6 mg/kg.
In the case of `CC[C@H]1OC(=O)[C@H](C)[C@@H](O[C@H]2C[C@@](C)(OC)[C@@H](O)[C@H](C)O2)[C@H](C)[C@@H](O[C@@H]2O[C@H](C)C[C@H](N(C)C)[C@H]2O)[C@](C)(O)C[C@@H](C)[C@H](N(C)C2CCCCC2)[C@H](C)[C@@H](O)[C@]1(C)O` [Compound 71, 9-Deoxo-9-[(N-cyclohexyl-N-methyl)amino]erythromycin], the MIC in experiment [1] was 16 µg/mL (≈ 19.3 µM); in experiment [2], more than 128 µg/mL; in experiment [3], more than 128 µg/mL; in experiment [12] it was more than 128 µg/mL; in [5], 16 µg/mL (≈ 19.3 µM); in [6], 8 µg/mL (≈ 9.63 µM). Further, the MIC in experiment [7] was 1 µg/mL (≈ 1.2 µM); in experiment [8], 0.125 µg/mL (≈ 0.15 µM); in experiment [9], 8 µg/mL (≈ 9.63 µM); in experiment [10], 128 µg/mL (≈ 154 µM); in [11], 32 µg/mL (≈ 38.5 µM); in experiment [13], 32 µg/mL (≈ 38.5 µM). The MIC (with Escherichia coli EC14; in [14]) was more than 128 µg/mL in each case. The ED50 in the experiment with Staphylococcus aureus, with Streptococcus pneumoniae and with Streptococcus pyogenes was more than 50 mg/kg throughout.
As to `CC[C@H]1OC(=O)[C@H](C)[C@@H](O[C@H]2C[C@@](C)(OC)[C@@H](O)[C@H](C)O2)[C@H](C)[C@@H](O[C@@H]2O[C@H](C)C[C@H](N(C)C)[C@H]2O)[C@](C)(O)C[C@@H](C)[C@H](N2CCCCC2)[C@H](C)[C@@H](O)[C@]1(C)O` [Compound 72, 9-Deoxo-9-(1-piperidinyl)erythromycin], the MIC is 16 µg/mL (≈ 19.9 µM) in experiment [1]; more than 128 µg/mL in experiment [2]; more than 128 µg/mL in experiment [3]; more than 128 µg/mL in [12]; 16 µg/mL (≈ 19.9 µM) in experiment [5]; 8 µg/mL (≈ 9.96 µM) in experiment [6]. In addition, the MIC in experiment [7] came to 1 µg/mL (≈ 1.25 µM); in experiment [8] it was 1 µg/mL (≈ 1.25 µM); in [9] it was 4 µg/mL (≈ 4.98 µM); in experiment [10] it was 128 µg/mL (≈ 159 µM); in experiment [11], 2 µg/mL (≈ 2.49 µM); in experiment [13], 64 µg/mL (≈ 79.7 µM). The MIC (in the experiment on Escherichia coli EC14; in experiment [14]) was more than 128 µg/mL in each case. For the same compound, the ED50 was more than 44 mg/kg in the experiment with Staphylococcus aureus, 20.6 mg/kg in the experiment on Streptococcus pneumoniae and 23.6 mg/kg in the experiment on Streptococcus pyogenes.
